Laboratory results reported in publication PMC4295349, “Synthetic Antimicrobial Peptides Exhibit Two Different Binding Mechanisms to the Lipopolysaccharides Isolated from Pseudomonas aeruginosa and Klebsiella pneumoniae” (International Journal of Medicinal Chemistry, 2014).
Where two headings read alike, the source gives them in different places. Values belong to the molecule of their own block, whether it stands above or below them. Where a SMILES comes first, the peptide text is derived from it. [ ]: non-standard residue; d: D form. ξ: configuration not given here. Oic = O=C(O)[C@@H]1C[C@@H]2CCCC[C@@H]2N1; Oic(3aξ,7aξ) = O=C(O)[C@@H]1CC2CCCCC2N1; Tic = O=C(O)[C@@H]1Cc2ccccc2CN1; βAla = NCCC(=O)O

Columns and labels:
K. pneumoniae BAMC 07-18 [1] = format: cell-based, Klebsiella pneumoniae
Description: Table 3 In vitro minimum inhibitory concentration (MIC) and minimum bactericide concentration (MBC) activity against K. pneumonia and P. aeruginosa. | column: K. pneumoniae BAMC 07-18 / MBC (μg/mL)/(μM)

K. pneumoniae BAMC 07-18 [2] = settings: for in vitro inhibitory activity: against K. pneumoniae
P. aeruginosa PAO1 [3] = format: cell-based, Pseudomonas aeruginosa
Description: Table 3 In vitro minimum inhibitory concentration (MIC) and minimum bactericide concentration (MBC) activity against K. pneumonia and P. aeruginosa. | column: P. aeruginosa PAO1 / MBC (µg/mL)/(μM)

P. aeruginosa PAO1 [4] = settings: for in vitro inhibitory activity: against P. aeruginosa
[5] = format: physicochemical
Description: Peptide solutions were prepared by dissolving approximately 2 mg of AMPs 70, 74, 75, 79, or 80 in 1.0 mL of phosphate buffer. […] For the LPS liposome studies 350 μL of stock LPS solution was mixed with 50 μL of stock peptide solution. CD spectroscopy is a sensitive technique, so it is commonly used to monitor conformational changes in peptides and proteins. […] All CD spectra were obtained by acquiring 8 scans using a 0.1 mm cylindrical quartz cell with a spectral range of 260 to 195 nm (at wavelengths below 195 nm the HTV exceeded 400, and therefore data collection was terminated at 195 nm) and a scanning rate of 20 nm/min. Acquisition parameters were bandwidth 1 nm, data pitch 0.2 nm, response time 2.0 s, and 5 mdeg sensitivity. Spectra were collected at room temperature (298 K). Contributions from LPS were eliminated by subtracting from the corresponding AMP-LPS solutions. All analyses of CD spectra were conducted after smoothing with a means-movement function.

[6] = tested on: LPS isolated from K. pneumoniae; assay: 1H NMR of LPS on addition of AMP; format: binding, Klebsiella pneumoniae; settings: 1.0 mg/mL LPS + 0.1 mg AMP in 600 μL 150 mM perdeuterated sodium acetate buffer pH 5.64 in D2O, 298 K
Description: (§1) All ^1H experiments were conducted at 298 K on a Bruker Avance III 400 MHz NMR spectrometer equipped with a 5 mm direct observe Z-gradient broad-band probe. The spectral width was 4,000 Hz, 256 FIDs were collected per experiment. Data were processed using exponential multiplication with a line-broadening function of 5 Hz. Samples contained 1.0 mg/mL of the LPS in the presence of 0.1 mg of the AMP in 600 μL of a 150 mM perdeuterated sodium acetate buffer at a pH of 5.64 in D2O.

[7] = tested on: LPS isolated from P. aeruginosa; assay: 1H NMR of LPS on addition of AMP; format: binding, Pseudomonas aeruginosa; settings: 1.0 mg/mL LPS + 0.1 mg AMP in 600 μL 150 mM perdeuterated sodium acetate buffer pH 5.64 in D2O, 298 K
Description: as §1

[8] = K. pneumoniae BAMC 07-18, light face value
[9] = P. aeruginosa PAO1, light face value

MIC (K. pneumoniae BAMC 07-18 [2]; BAMC 07-18): 13.9 µM
MIC (K. pneumoniae BAMC 07-18 [2]; [8]): 50 µg/mL
MIC (P. aeruginosa PAO1 [4]; [9]): 50 µg/mL
MIC (P. aeruginosa PAO1 [4]; PAO1): 13.9 µM
solubility in phosphate buffer at approximately 2 mg in 1.0 mL [5]: solubility issues
Molecule: CC(C)C[C@H](NC(=O)[C@@H](N)CCCCN)C(=O)N1Cc2ccccc2C[C@H]1C(=O)N1C2CCCCC2C[C@H]1C(=O)NCC(=O)N[C@@H](CCCCN)C(=O)N1Cc2ccccc2C[C@H]1C(=O)N1C2CCCCC2C[C@H]1C(=O)NCC(=O)N[C@@H](Cc1ccccc1)C(=O)N1Cc2ccccc2C[C@H]1C(=O)N1C2CCCCC2C[C@H]1C(=O)NCC(=O)N[C@@H](CCCCN)C(=O)N1Cc2ccccc2C[C@H]1C(=O)N1C2CCCCC2C[C@H]1C(=O)NCC(=O)N[C@@H](Cc1ccccc1)C(=O)N1Cc2ccccc2C[C@H]1C(=O)N1C2CCCCC2C[C@H]1C(=O)NCC(=O)N[C@@H](CCCCN)C(=O)N1Cc2ccccc2C[C@H]1C(=O)N1C2CCCCC2C[C@H]1C(=O)N[C@@H](CCCCN)C(=O)N[C@@H](CCCCN)C(=O)N[C@@H](CCCCN)C(=O)N[C@@H](CCCCN)C(N)=O (stereo partly drawn) [AMP 76] (H-KL[Tic][Oic(3aξ,7aξ)]GK[Tic][Oic(3aξ,7aξ)]GF[Tic][Oic(3aξ,7aξ)]GK[Tic][Oic(3aξ,7aξ)]GF[Tic][Oic(3aξ,7aξ)]GK[Tic][Oic(3aξ,7aξ)]KKKK-NH2)
MBC (K. pneumoniae BAMC 07-18 [1]; BAMC 07-18): 13.9 µM
MBC (K. pneumoniae BAMC 07-18 [1]; [8]): 50 µg/mL
MBC (P. aeruginosa PAO1 [3]; [9]): 50 µg/mL
MBC (P. aeruginosa PAO1 [3]; PAO1): 13.9 µM
in vitro inhibitory activity (P. aeruginosa PAO1 [4]): 50 µg/mL

Molecule: CC(C)C[C@H](NC(=O)[C@@H](N)CCCCN)C(=O)N1Cc2ccccc2C[C@H]1C(=O)N1C2CCCCC2C[C@H]1C(=O)N[C@@H](CCCCN)C(=O)NCC(=O)N1Cc2ccccc2C[C@H]1C(=O)N1C2CCCCC2C[C@H]1C(=O)N[C@@H](Cc1ccccc1)C(=O)NCC(=O)N1Cc2ccccc2C[C@H]1C(=O)N1C2CCCCC2C[C@H]1C(=O)N[C@@H](CCCCN)C(=O)NCC(=O)N1Cc2ccccc2C[C@H]1C(=O)N1C2CCCCC2C[C@H]1C(=O)N[C@@H](Cc1ccccc1)C(=O)NCC(=O)N1Cc2ccccc2C[C@H]1C(=O)N1C2CCCCC2C[C@H]1C(=O)N[C@@H](CCCCN)C(=O)NCC(=O)N1Cc2ccccc2C[C@H]1C(=O)N1C2CCCCC2C[C@H]1C(=O)N[C@@H](CCCCN)C(=O)N[C@@H](CCCCN)C(=O)N[C@@H](CCCCN)C(=O)N[C@@H](CCCCN)C(N)=O (stereo partly drawn) [AMP 79] (H-KL[Tic][Oic(3aξ,7aξ)]KG[Tic][Oic(3aξ,7aξ)]FG[Tic][Oic(3aξ,7aξ)]KG[Tic][Oic(3aξ,7aξ)]FG[Tic][Oic(3aξ,7aξ)]KG[Tic][Oic(3aξ,7aξ)]KKKK-NH2)
change of LPS 1H NMR resonances in the region of 1.8 to 0.7 ppm (lipid A) [6]: reduction in the signal intensity
MBC (K. pneumoniae BAMC 07-18 [1]; BAMC 07-18): 13.9 µM
MBC (K. pneumoniae BAMC 07-18 [1]; [8]): 50 µg/mL
MIC (K. pneumoniae BAMC 07-18 [2]; BAMC 07-18): 13.9 µM
MIC (K. pneumoniae BAMC 07-18 [2]; [8]): 50 µg/mL
in vitro inhibitory activity (K. pneumoniae BAMC 07-18 [2]): 50 µg/mL
MBC (P. aeruginosa PAO1 [3]; [9]): 50 µg/mL
MBC (P. aeruginosa PAO1 [3]; PAO1): 13.9 µM
MIC (P. aeruginosa PAO1 [4]; [9]): 50 µg/mL
MIC (P. aeruginosa PAO1 [4]; PAO1): 13.9 µM
in vitro inhibitory activity (P. aeruginosa PAO1 [4]): 50 µg/mL
change of LPS 1H NMR resonances between 1.5 and 0.5 ppm (lipid A side chains) [7]: significant reduction in the peak heights

Molecule: CC(=O)N[C@@H](CCCCN)C(=O)N[C@@H](CC(C)C)C(=O)N1Cc2ccccc2C[C@H]1C(=O)N1[C@H](C(=O)N[C@@H](CCCCN)C(=O)N2Cc3ccccc3C[C@H]2C(=O)N2[C@H](C(=O)N[C@@H](Cc3ccccc3)C(=O)N3Cc4ccccc4C[C@H]3C(=O)N3[C@H](C(=O)N[C@@H](CCCCN)C(=O)N4Cc5ccccc5C[C@H]4C(=O)N4[C@H](C(=O)N[C@@H](Cc5ccccc5)C(=O)N5Cc6ccccc6C[C@H]5C(=O)N5[C@H](C(=O)N[C@@H](CCCCN)C(=O)N6Cc7ccccc7C[C@H]6C(=O)N6[C@H](C(=O)N[C@@H](CCCCN)C(=O)N[C@@H](CCCCN)C(=O)N[C@@H](CCCCN)C(=O)N[C@@H](CCCCN)C(N)=O)C[C@@H]7CCCC[C@@H]76)C[C@@H]6CCCC[C@@H]65)C[C@@H]5CCCC[C@@H]54)C[C@@H]4CCCC[C@@H]43)C[C@@H]3CCCC[C@@H]32)C[C@@H]2CCCC[C@@H]21 [AMP 70] (Ac-KL[Tic][Oic]K[Tic][Oic]F[Tic][Oic]K[Tic][Oic]F[Tic][Oic]K[Tic][Oic]KKKK-NH2)
change of LPS 1H NMR resonances in the region of 1.8 to 0.7 ppm (lipid A) [6]: reduction in the signal intensity
MBC (K. pneumoniae BAMC 07-18 [1]; BAMC 07-18): >100 µg/mL
MIC (K. pneumoniae BAMC 07-18 [2]; BAMC 07-18): >100 µg/mL
in vitro inhibitory activity (K. pneumoniae BAMC 07-18 [2]): ≥ 100 µg/mL
MBC (P. aeruginosa PAO1 [3]; PAO1): >100 µg/mL
MIC (P. aeruginosa PAO1 [4]; PAO1): >100 µg/mL
in vitro inhibitory activity (P. aeruginosa PAO1 [4]): ≥ 100 µg/mL
change of LPS 1H NMR resonances between 1.5 and 0.5 ppm (lipid A side chains) [7]: significant reduction in the peak heights

Molecule: CC(C)C[C@H](NC(=O)[C@@H](N)CCCCN)C(=O)N1Cc2ccccc2C[C@H]1C(=O)N1C2CCCCC2C[C@H]1C(=O)NCC(=O)N[C@@H](CCCCN)C(=O)N1Cc2ccccc2C[C@H]1C(=O)N1C2CCCCC2C[C@H]1C(=O)NCCC(=O)N[C@@H](Cc1ccccc1)C(=O)N1Cc2ccccc2C[C@H]1C(=O)N1C2CCCCC2C[C@H]1C(=O)NCC(=O)N[C@@H](CCCCN)C(=O)N1Cc2ccccc2C[C@H]1C(=O)N1C2CCCCC2C[C@H]1C(=O)NCCC(=O)N[C@@H](Cc1ccccc1)C(=O)N1Cc2ccccc2C[C@H]1C(=O)N1C2CCCCC2C[C@H]1C(=O)NCC(=O)N[C@@H](CCCCN)C(=O)N1Cc2ccccc2C[C@H]1C(=O)N1C2CCCCC2C[C@H]1C(=O)N[C@@H](CCCCN)C(=O)N[C@@H](CCCCN)C(=O)N[C@@H](CCCCN)C(=O)N[C@@H](CCCCN)C(N)=O (stereo partly drawn) [AMP 80] (H-KL[Tic][Oic(3aξ,7aξ)]GK[Tic][Oic(3aξ,7aξ)][βAla]F[Tic][Oic(3aξ,7aξ)]GK[Tic][Oic(3aξ,7aξ)][βAla]F[Tic][Oic(3aξ,7aξ)]GK[Tic][Oic(3aξ,7aξ)]KKKK-NH2)
change of LPS 1H NMR resonances in the region of 1.8 to 0.7 ppm (lipid A) [6]: reduction in the signal intensity
MBC (K. pneumoniae BAMC 07-18 [1]; BAMC 07-18): 13.8 µM
MBC (K. pneumoniae BAMC 07-18 [1]; [8]): 50 µg/mL
MIC (K. pneumoniae BAMC 07-18 [2]; BAMC 07-18): 13.8 µM
MIC (K. pneumoniae BAMC 07-18 [2]; [8]): 50 µg/mL
in vitro inhibitory activity (K. pneumoniae BAMC 07-18 [2]): 50 µg/mL
MBC (P. aeruginosa PAO1 [3]; [9]): 50 µg/mL
MBC (P. aeruginosa PAO1 [3]; PAO1): 13.8 µM
MIC (P. aeruginosa PAO1 [4]; [9]): 25 µg/mL
MIC (P. aeruginosa PAO1 [4]; PAO1): 6.9 µM
in vitro inhibitory activity (P. aeruginosa PAO1 [4]): 50 µg/mL
change of LPS 1H NMR resonances between 1.5 and 0.5 ppm (lipid A side chains) [7]: significant reduction in the peak heights

Molecule: CC(C)C[C@H](NC(=O)[C@@H](N)CCCCN)C(=O)N1Cc2ccccc2C[C@H]1C(=O)N1[C@H](C(=O)N[C@@H](CCCCN)C(=O)N2Cc3ccccc3C[C@H]2C(=O)N2[C@H](C(=O)NCC(=O)N[C@@H](Cc3ccccc3)C(=O)N3Cc4ccccc4C[C@H]3C(=O)N3[C@H](C(=O)N[C@@H](CCCCN)C(=O)N4Cc5ccccc5C[C@H]4C(=O)N4[C@H](C(=O)NCC(=O)N[C@@H](Cc5ccccc5)C(=O)N5Cc6ccccc6C[C@H]5C(=O)N5[C@H](C(=O)N[C@@H](CCCCN)C(=O)N6Cc7ccccc7C[C@H]6C(=O)N6[C@H](C(=O)N[C@@H](CCCCN)C(=O)N[C@@H](CCCCN)C(=O)N[C@@H](CCCCN)C(=O)N[C@@H](CCCCN)C(N)=O)C[C@@H]7CCCC[C@@H]76)C[C@@H]6CCCC[C@@H]65)C[C@@H]5CCCC[C@@H]54)C[C@@H]4CCCC[C@@H]43)C[C@@H]3CCCC[C@@H]32)C[C@@H]2CCCC[C@@H]21 [AMP 75] (H-KL[Tic][Oic]K[Tic][Oic]GF[Tic][Oic]K[Tic][Oic]GF[Tic][Oic]K[Tic][Oic]KKKK-NH2)
change of LPS 1H NMR resonances in the region of 1.8 to 0.7 ppm (lipid A) [6]: reduction in the signal intensity
in vitro inhibitory activity (K. pneumoniae BAMC 07-18 [2]): ≥ 100 µg/mL
MBC (P. aeruginosa PAO1 [3]; [9]): 50 µg/mL
MBC (P. aeruginosa PAO1 [3]; PAO1): 14.6 µM
MIC (P. aeruginosa PAO1 [4]; [9]): 50 µg/mL
MIC (P. aeruginosa PAO1 [4]; PAO1): 14.6 µM
in vitro inhibitory activity (P. aeruginosa PAO1 [4]): 50 µg/mL
change of LPS 1H NMR resonances between 1.5 and 0.5 ppm (lipid A side chains) [7]: significant reduction in the peak heights

Molecule: H2N-KL-Tic-Oic-GK-Tic-Oic-F-Tic-Oic-GK-Tic-Oic-F-Tic-Oic-GK-Tic-Oic-KKKK-CONH2 [AMP 74, synthetic antimicrobial peptide containing six Tic-Oic dipeptide units, residue A Gly]
change of LPS 1H NMR resonances in the region of 1.8 to 0.7 ppm (lipid A) [6]: reduction in the signal intensity
in vitro inhibitory activity (K. pneumoniae BAMC 07-18 [2]): ≥ 100 µg/mL
in vitro inhibitory activity (P. aeruginosa PAO1 [4]): ≥ 100 µg/mL
change of LPS 1H NMR resonances between 1.5 and 0.5 ppm (lipid A side chains) [7]: significant reduction in the peak heights
